US9266817B2, “Catecholamine derivatives for obesity and neurological disorders” (EMORY UNIVERSITY, priority 2009, dated 2016)

What was measured:
TrkB [1] = target: T1, TrkB (Mus musculus, UniProt P15209, F616A); assay type: in vivo; conditions: L-DOPA 50 mg/kg, DOPS 100 mg/kg, 1NMPP1 50 μM
T1 construct: from tissue; host or cells: mouse brain
Experimental: The DOPS concentration was 20 mg/ml, the vitamin C concentration was 2 mg/ml, and the benserazide concentration was 5 mg/ml. The vitamin C prevents oxidation of the DOPS, and the benserazide is a peripheral inhibitor of AADC and restricts the production of NE from DOPS to the brain. The compounds were added to a tube, and 20 μl of 10 M HCl was added to each ml of DOPS solution. The appropriate amount of water was added to the tube, and then HCl was added to achieve the desired volume. For example, to make 1 mL of a DOPS solution, 20 mg DOPS, 2 mg vitamin C, and 5 mg benserazide were added to a tube, followed by 980 μL of water and 20 μL of 10 M HCl. The solution was vortexed until all DOPS was dissolved. The DOPS solution was injected subcutaneously in a volume of 50 μl/g of mouse. The appropriate amount of DOPS solution was pipetted into a clean tube, followed by the amount of 10 M NaOH required to exactly neutralize the HCl. The solution was then shaken. The amount of 10 M NaOH is the weight of the mouse in microliters. For example, for a 20 g mouse, pipet 1 ml of the DOPS solution is pipetted into a tube and 20 μL of 10 M NaOH is added. For a 30 g mouse, 1.5 mL of the DOPS solution is pipetted into a tube and 30 μl of 10 M NaOH is added. Two to four month-old TrkBF616A mice were pretreated with 1NMPP1 in drinking water (50 μM) 1 day before L-DOPA (50 mg/kg) or DOPS (100 mg/kg) intraperitoneal injection. At times of 2 hours and 5 hours after drug administration, the L-DOPA or DOPS-treated mice were sacrificed, respectively. The brain lysates were prepared and analyzed by immunoblotting against anti-phospho-TrkB Y816 and TrkA Y794 antibodies.
TrkB F616A mice were pretreated with 1NMPP1 (50 μM) before L-DOPA or DOPS administration.

TrkA = target: T2, TrkA (Mus musculus, UniProt Q3UFB7); assay: TrkA activation in mouse brain after DOPS (control); assay type: in vivo; conditions: wild-type and DBH -/- mice
T2 construct: from tissue; host or cells: mouse brain
Experimental: Mice lacking dopamine β-hydroxylase (DBH) are unable to synthesize noradrenaline (essential for mouse fetal development) or adrenaline and die in utero. Administration of DOPS, which can be converted to noradrenaline in the absence of DBH, rescued DBH −/− mice from dying. Mature DBH −/− mice can live without supplemental of DOPS. […] In wild-type control mice, DOPS induced TrkB activation in a time dependent manner with the maximal effect at 12 hours. In contrast, DOPS-triggered TrkB activation occurred at 1 hour, peaked at 5 hours, and decreased at 12 hours in DBH −/− mice. As a control, TrkA was not activated.

BDNF = assay: Quantitative analysis of BDNF in mouse brain during drug treatment; assay type: in vivo, mice; conditions: during the drug treatment
TrkB [2] = assay type: in vivo
TrkB [3] = target: T3, TrkB (Rattus norvegicus, UniProt Q63604); assay: Immunoblotting of TrkB phosphorylation in primary cortical neurons treated with catecholamines; assay type: cell-based
T3 construct: endogenous in cells; host or cells: primary rat cortical and hippocampal neurons
Experimental: Primary cultured rat cortical neurons were prepared as follows. E17 rat pups were decapitated and cortex was extirpated, cross chopped and suspended by pipetting for separation in 5% fetal calf serum (FCS), 5% horse serum (HS) DMEM. The cell suspension was then centrifuged at 250×g for 5 min. This operation was repeated. Cells were seeded into polyethyleneimine-coated 10 cm^2 dishes and 12-well plates including coated-coverslips and incubated at 37° C. in 5% CO2/95% air. After 3 hours, the culture medium was changed to Neurobasal containing B-27 supplement (Invitrogen; Carlsbad, Calif.) and incubated for 4 days. For maintenance, half of the culture medium was changed to fresh Neurobasal/B27 in every 4 days. After 1 week, the dished cultured neurons were ready for use.
To explore whether monoamine neurotransmitters, including catecholamines (see, e.g., FIG. 1), could stimulate TrkB activation, hippocampal neurons were treated with 300 nM of catecholamines, serotonin, and melatonin for 30 min.

TrkB [4] = target: TrkB (Homo sapiens, UniProt Q16620); assay: TrkB activation by catecholamines in TrkB-transfected HEK293 cells pretreated with OCT3 inhibitor; assay type: cell-based; parameters: expressed in transfected cells; host or cells: HEK293; conditions: 2 μM, 30 minutes pretreatment, catecholamines 15 minutes
Experimental: HEK293 cells were transfected with TrkB and pretreated with the OCT3 inhibitor decynium (2 μM) for 30 minutes, followed by stimulation with catecholamines for 15 minutes. The cell lysates were monitored by immunoblotting with anti-p-TrkB-Y-816. […] An equal amount of TrkB was expressed in each sample (FIG. 22A, lower panel).

T1 sequence (P15209 32-821 F616A): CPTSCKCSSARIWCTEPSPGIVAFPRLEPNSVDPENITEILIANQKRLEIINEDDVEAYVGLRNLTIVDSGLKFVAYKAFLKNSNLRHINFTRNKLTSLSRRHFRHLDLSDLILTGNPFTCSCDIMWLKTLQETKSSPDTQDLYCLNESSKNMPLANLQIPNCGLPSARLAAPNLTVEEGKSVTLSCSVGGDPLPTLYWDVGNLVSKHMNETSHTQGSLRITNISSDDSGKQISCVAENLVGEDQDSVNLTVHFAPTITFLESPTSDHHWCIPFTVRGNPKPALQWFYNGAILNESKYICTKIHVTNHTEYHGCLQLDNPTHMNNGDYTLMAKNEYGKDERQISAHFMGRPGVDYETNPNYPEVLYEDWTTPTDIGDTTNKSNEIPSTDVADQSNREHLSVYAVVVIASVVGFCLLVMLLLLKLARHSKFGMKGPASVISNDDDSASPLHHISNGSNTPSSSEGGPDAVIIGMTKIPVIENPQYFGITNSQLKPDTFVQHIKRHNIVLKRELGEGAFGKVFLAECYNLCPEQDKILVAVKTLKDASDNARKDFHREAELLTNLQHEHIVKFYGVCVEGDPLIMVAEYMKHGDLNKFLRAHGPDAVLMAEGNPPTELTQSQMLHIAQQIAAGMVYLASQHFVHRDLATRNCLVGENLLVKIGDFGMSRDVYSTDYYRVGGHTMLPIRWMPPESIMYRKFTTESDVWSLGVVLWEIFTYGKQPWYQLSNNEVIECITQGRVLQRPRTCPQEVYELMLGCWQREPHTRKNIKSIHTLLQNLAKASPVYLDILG
TrkB (Homo sapiens, UniProt Q16620), sequence (Q16620 32-822, species assumed): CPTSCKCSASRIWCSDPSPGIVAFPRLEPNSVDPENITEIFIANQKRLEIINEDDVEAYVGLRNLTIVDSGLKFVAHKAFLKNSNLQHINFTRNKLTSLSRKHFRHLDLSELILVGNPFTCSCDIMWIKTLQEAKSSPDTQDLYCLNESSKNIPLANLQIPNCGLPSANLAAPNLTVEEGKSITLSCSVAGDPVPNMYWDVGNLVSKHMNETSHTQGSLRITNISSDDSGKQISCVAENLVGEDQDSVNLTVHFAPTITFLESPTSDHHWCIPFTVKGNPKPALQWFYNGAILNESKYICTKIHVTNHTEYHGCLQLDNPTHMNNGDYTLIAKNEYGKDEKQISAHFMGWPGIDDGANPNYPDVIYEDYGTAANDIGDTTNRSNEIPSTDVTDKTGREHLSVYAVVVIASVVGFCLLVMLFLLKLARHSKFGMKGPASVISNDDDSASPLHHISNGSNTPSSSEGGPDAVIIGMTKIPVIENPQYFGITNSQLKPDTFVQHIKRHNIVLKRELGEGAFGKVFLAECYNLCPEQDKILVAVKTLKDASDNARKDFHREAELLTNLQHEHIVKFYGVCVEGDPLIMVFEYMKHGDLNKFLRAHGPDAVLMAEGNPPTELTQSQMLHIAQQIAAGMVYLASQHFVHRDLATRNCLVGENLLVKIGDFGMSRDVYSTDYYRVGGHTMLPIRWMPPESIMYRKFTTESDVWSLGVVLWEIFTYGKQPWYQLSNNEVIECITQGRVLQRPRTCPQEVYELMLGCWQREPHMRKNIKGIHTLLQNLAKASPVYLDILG
T2 sequence (Q3UFB7 34-799): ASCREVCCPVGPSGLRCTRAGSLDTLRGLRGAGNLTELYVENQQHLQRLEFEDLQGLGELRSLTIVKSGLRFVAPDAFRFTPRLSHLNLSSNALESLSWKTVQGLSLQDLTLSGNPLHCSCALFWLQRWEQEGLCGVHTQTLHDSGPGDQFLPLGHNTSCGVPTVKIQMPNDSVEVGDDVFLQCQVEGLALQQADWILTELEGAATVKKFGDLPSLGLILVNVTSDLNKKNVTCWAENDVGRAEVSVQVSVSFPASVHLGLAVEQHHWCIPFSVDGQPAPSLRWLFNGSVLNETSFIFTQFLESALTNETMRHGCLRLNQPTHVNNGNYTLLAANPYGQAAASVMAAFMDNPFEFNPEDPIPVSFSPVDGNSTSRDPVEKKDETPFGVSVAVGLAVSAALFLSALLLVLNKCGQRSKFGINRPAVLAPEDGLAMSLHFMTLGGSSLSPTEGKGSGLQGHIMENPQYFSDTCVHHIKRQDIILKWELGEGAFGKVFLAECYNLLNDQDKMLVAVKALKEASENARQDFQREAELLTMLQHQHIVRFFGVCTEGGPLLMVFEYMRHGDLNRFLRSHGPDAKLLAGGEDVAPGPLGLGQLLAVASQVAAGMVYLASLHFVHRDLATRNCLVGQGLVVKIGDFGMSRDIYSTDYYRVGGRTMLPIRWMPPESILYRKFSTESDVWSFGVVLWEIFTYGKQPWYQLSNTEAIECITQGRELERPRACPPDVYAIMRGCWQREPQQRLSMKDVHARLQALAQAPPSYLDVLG
T3 sequence (Q63604 32-821): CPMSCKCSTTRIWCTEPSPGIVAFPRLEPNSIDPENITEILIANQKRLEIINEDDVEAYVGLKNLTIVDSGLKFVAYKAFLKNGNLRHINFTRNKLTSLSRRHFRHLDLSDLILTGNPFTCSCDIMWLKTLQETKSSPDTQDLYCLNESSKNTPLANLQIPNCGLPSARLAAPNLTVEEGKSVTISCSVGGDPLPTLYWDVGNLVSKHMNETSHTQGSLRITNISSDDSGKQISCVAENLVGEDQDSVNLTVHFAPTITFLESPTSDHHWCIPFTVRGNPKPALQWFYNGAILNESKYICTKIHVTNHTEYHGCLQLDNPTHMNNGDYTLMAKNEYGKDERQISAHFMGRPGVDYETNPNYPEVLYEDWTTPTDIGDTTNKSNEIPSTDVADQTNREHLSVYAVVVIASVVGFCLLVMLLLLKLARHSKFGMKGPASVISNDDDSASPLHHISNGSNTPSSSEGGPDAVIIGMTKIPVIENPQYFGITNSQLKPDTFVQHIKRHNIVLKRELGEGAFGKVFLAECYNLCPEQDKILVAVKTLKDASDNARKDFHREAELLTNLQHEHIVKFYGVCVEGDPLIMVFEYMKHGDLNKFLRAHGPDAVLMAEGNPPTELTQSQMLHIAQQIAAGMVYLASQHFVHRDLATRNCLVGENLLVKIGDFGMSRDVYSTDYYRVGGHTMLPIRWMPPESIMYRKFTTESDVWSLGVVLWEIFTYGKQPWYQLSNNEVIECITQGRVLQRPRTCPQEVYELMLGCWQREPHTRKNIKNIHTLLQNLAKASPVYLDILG

SMILES | TrkB tyrosine phosphorylation/activation in mice (TrkB [1]) | TrkA activation in mouse brain (TrkA) | BDNF in mouse brain (BDNF) | TrkB activation in BDNF -/- cortex (TrkB [2]; BDNF conditional knockout mice, compared to vehicle control) | Time at which TrkB activation occurred (TrkB [2]; DBH -/- mice, intraperitoneal) | Time at which TrkB activation peaked (TrkB [2]; DBH -/- mice, intraperitoneal) | TrkB activation at 12 hours (TrkB [2]; DBH -/- mice, intraperitoneal) | Time of maximal effect on TrkB activation (TrkB [2]; wild-type control mice, intraperitoneal) | TrkB activation in primary cultured neurons (TrkB [3]) | Effect of OCT3 inhibitor on TrkB activation by catecholamines (TrkB [4])
N[C@H](C(=O)O)[C@H](O)c1ccc(O)c(O)c1 [DOPS, dihydroxyphenylserine] | provoked evident TrkB activation | not activated | not significantly altered | strongly triggered TrkB activation | 1 h | 5 h | decreased | 12 h | rapidly induced TrkB activation | –
CCN1/C(=C/c2ccc3ccccc3[n+]2CC)C=Cc2ccccc21.[I-] [decynium] | – | – | – | – | – | – | – | – | – | failed to inhibit
